Assays:
[1] = humans; cited from earlier work
syngeneic MC38 tumors = experiment: MC38 study: anti-PD1 antibody alone or with methanol or sodium formate, tumor volume and survival; type: in vivo, C57BL/6 mice
Method: Tumor volumes were measured by caliper twice weekly.

MC38 cells = experiment: MC38 rechallenge of mice that cleared tumors; type: in vivo; conditions: 6 mice cleared by methanol plus anti-PD1, reinoculated with 5×10^5 MC38 cells on opposite flank, untreated, observed three weeks
Text: The rechallenged mice were monitored twice weekly for tumor growth for three weeks. Fifteen age-matched, tumor-naïve control mice were simultaneously inoculated as a control. The mice were not treated during the observation interval.

[2] = primates; cited from earlier work
[3] = Body weight in the MC38 study; conditions: methanol 2 g/kg daily oral gavage or sodium formate 0.5% w/v in drinking water, with anti-PD1
Method: Female C57BL/6 mice (10 per group) were inoculated subcutaneously with 5×10^5 MC38 syngeneic mouse tumor cells. […] Tumor volumes were measured by caliper twice weekly.

[4] = in vivo; cited from earlier work
1C-starved T-cells = conditions: formate supplementation; cited from earlier work

| SMILES | lethal dose [1] [mg/kg] | response to anti-PD1 therapy (syngeneic MC38 tumors; methanol 2 g/kg daily oral gavage plus anti-PD1 antibody 5 mg/kg ip twice weekly, compared to vehicle or sodium formate) | synergy with immunotherapy in a mouse model of cancer (syngeneic MC38 tumors; mouse model of cancer) | tumor development after rechallenge (MC38 cells) | formate levels at which symptomatic toxicity is observed [2] | effects on body weight [3] | elimination [4] | T-cell activity (1C-starved T-cells) |
| --- | --- | --- | --- | --- | --- | --- | --- | --- |
| CO [methanol] | 300 to 1000 | improved response to anti-PD1 therapy | synergize with immunotherapy | did not develop tumors | – | – | – | – |
| O=C[O-].[Na+] [sodium formate] | – | – | – | – | greater than 8 mM | No effects on body weight | too rapidly eliminated to dose directly | rescues T-cell activity |
